{"source": "patent US20100303916A1", "about": "“ENHANCED DRUG DELIVERY WITH ORIENTABLE PARTICLES” (THE GOVERNORS OF THE UNIVERSITY OF ALBERTA, priority 2007, published 2010)", "assay": "Aerosol particle size distribution and number concentration by SEM", "type": "physicochemical", "settings": "mean ± SD, n = 9 SEM images", "method": "The particle size distribution and number concentration of the CA and CA/magnetite aerosols were determined from samples taken from the delivery apparatus used for the aerosol deposition experiments. Suspensions of CA and CA/magnetite were nebulized, and drawn by vacuum pump along with ambient, drying air at 10 l/min. into a large volume (˜16 1) delivery chamber for 1.5 minutes. With reference to FIG. 5, after filling the delivery chamber 40 with aerosol, valves 46, 48 connecting to the nebulizer 42 and the vacuum pump 44, respectively, were closed, and a butterfly valve 50 at the base 52 of the chamber 40 was opened. Aerosol was then sampled from the base 52 of the chamber 40 onto a 0.2 μm pore polycarbonate membrane (Isopore GTTP04700; Millipore, Billerica, Mass., not shown) for 1 hour at a flow rate of 0.21 l/min., maintained through the delivery chamber using dry, compressed air and a needle valve, and monitored using a low flow rate rotameter (FL-2010; OMEGA Canada, Laval, QC). Over the period of the sampling, the needle valve was adjusted as required to hold the flow rate to within 0.21±0.02 l/min.\nAfter collecting aerosol from the delivery chamber, samples of the polycarbonate membranes were prepared for analysis by scanning electron microscopy (SEM) (S-2500; Hitachi, Japan). For both the CA and CA/magnetite aerosols, three pieces were cut from the membrane, from locations chosen at random, and mounted to SEM stubs using two-sided carbon adhesive tabs. These samples were sputter coated with a thin layer of gold prior to SEM analysis. Images of the samples were taken at 3000× magnification, again from locations chosen at random, and stored digitally.\nFor three SEM images from each of the three membrane samples, the length and diameter of each particle was manually measured using digital image analysis software (Scion Image; Scion Corporation, Frederick, Md.). The particles were assumed to lie parallel to the face of the membrane. Particle sizing rules were similar to those established for asbestos samples by Platek et al. (1992). Each particle was marked immediately after being sized so as to avoid sizing the same particle twice. Where a particle was not perfectly straight, its length was measured as the arc length along its central axis from one tip to the other. Diameter was measured perpendicular to the central axis at the midpoint along a particle's length, except in rare cases where the particle had two regions of clearly different diameter. In these latter cases, an average of the two diameters was taken. Overlapping particles were sized separately only if both ends of each particle were clearly visible.\nAfter sizing, the volume of each particle was calculated, under the approximation that the particles were cylindrical. Volume-weighted size distributions were then fit with lognormal curves by nonlinear regression to yield a volume median length (VML), volume median diameter (VMD), and geometric standard deviations in both length and diameter (σL and σD), respectively) for each SEM image. In addition, the particle number concentration in the sampled air was calculated for each image from the volume of sampled air, and the ratio between the image area and the total area of the membrane exposed to the aerosol. The mean values of these parameters for the three different membrane samples were compared by one-way ANOVA for independent samples in order to gauge their variation over different locations on the membrane."}
{"smiles": "O=C(O)c1cc(=O)c2c(OCC(O)COc3cccc4oc(C(=O)O)cc(=O)c34)cccc2o1", "note": "[CA, cromoglycic acid]", "values": [{"measurement": "VMD (volume median diameter)", "setting": "aerosol sampled from delivery chamber", "result": "0.34 ± 0.02", "unit": "μm"}, {"measurement": "N (number of particles per unit volume of sampled air)", "result": "(2.0 ± 0.3) × 10^4 cm^−3"}, {"measurement": "VML (volume median length)", "result": "2.0 ± 0.4", "unit": "μm"}, {"measurement": "σD (geometric standard deviation for diameter)", "result": "1.5 ± 0.1"}, {"measurement": "σL (geometric standard deviation for length)", "result": "2.1 ± 0.1"}]}
